Measurements as given in patent US20240360122A1, “POLYMORPHIC FORMS AND SALTS OF A GLP-1R AGONIST” (Terns (Suzhou) Biotechnology Co., Ltd., priority 2023, published 2024).
Structures can show the parent of a compound that is named as a salt.

Experiments:
Type in all cases: physicochemical
[1] = Hygroscopicity by DVS at 25° C.
Experimental: DVS was measured via a SMS (Surface Measurement Systems) DVS Intrinsic. The relative humidity at 25° C. were calibrated against deliquescence point of LiCl, Mg(NO3)2 and KCl.

[2] = Kinetic solubility in water and bio-relevant media (SGF, FaSSIF, FeSSIF) at 37° C.; conditions: for S: Solubility / FC: Form change: 37° C.; for S: Solubility: calculated by freeform; for FC: Form change: residual solids by XRPD
Experimental: Add 4 mL of medium (H2O, SGF, FaSSIF and FeSSIF). • Rolled at 37° C. (˜25 rpm). Sampling at 1, 2, 4 and 24 hrs. • At each time-point, sampled 0.8 mL of solution or suspension into a centrifuge tube prior to centrifugation (12000 rpm, 37° C., 5 min) and filtration through 0.45 μm PTFE membrane. • Tested pH and concentration for the filtrate. Analyze residual solids by XRPD.
0.1 g of NaCl and 0.05 g of Triton X-100 were weighed into a 50-mL volumetric flask. Purified water was added to dissolve the solid. 67.5 μL HCl (38%, 12M) was added after the solid was dissolved completely. pH was then adjusted to 1.8 using HCl (1 M) or NaOH (1 M). Purified water was added to the volume.
(§1) 0.17 g of anhydrous NaH2PO4, 0.021 g of NaOH and 0.31 g of NaCl were weighed into a 50-mL volumetric flask. ˜48 mL purified water was added to dissolve the solid. pH was adjusted to 6.5 using 1M HCl or 1M NaOH. Purified water was then added to the volume. 0.11 g of SIF powder was added into the volumetric flask.
as §1, with “0.41 mL” for “0.17 g”, “acetic acid, 0.20” for “anhydrous NaH2PO4, 0.021”, “0.59” for “0.31”, “5.0” for “6.5”, “0.56” for “0.11”

[3] = Solid state stability at 25° C./60% RH and 40° C./75% RH for 1 week; conditions: for HPLC peak Area, RRT 1.00: main peak
Experimental: Each sample was added into a glass vial, sealed by parafilm with several holes, and kept under tested conditions. After one week, samples were taken for XRPD and HPLC purity test.

## N#Cc1ccc(COc2cccc(C3CCN(Cc4nc5ccc(C(=O)O)cc5n4Cc4cncs4)CC3)n2)c(F)c1 [Potassium salt Type A]
[1]; 25° C./80% RH
  water uptake (DVS): 0.62%
[1]; DVS, 25° C.
  hygroscopicity: slightly hygroscopic
[1]; DVS, 25° C./80% RH
  Water uptake at 25° C./80% RH: 0.62 wt %
[1]; XRPD after DVS test
  For change after DVS: No
[1]; after DVS test
  form change after DVS test (XRPD): no form change
[2]; FaSSIF, 1 hr
  S: Solubility: 24 µg/mL
  FC: Form change: No
[2]; FaSSIF, 2 hrs
  S: Solubility: 21 µg/mL
  FC: Form change: No
[2]; FaSSIF, 4 hrs
  S: Solubility: 22 µg/mL
  FC: Form change: No
[2]; FaSSIF, 24 hrs
  S: Solubility: 29 µg/mL
  FC: Form change: Yes
[2]; FeSSIF, 1 hr
  S: Solubility: 38 µg/mL
  FC: Form change: No
[2]; FeSSIF, 2 hrs
  S: Solubility: 35 µg/mL
  FC: Form change: No
[2]; FeSSIF, 4 hrs
  S: Solubility: 34 µg/mL
  FC: Form change: No
[2]; FeSSIF, 24 hrs
  S: Solubility: 21 µg/mL
  FC: Form change: Yes
[2]; H2O, 1 hr
  S: Solubility: 920 µg/mL
  FC: Form change: No
[2]; H2O, 2 hrs
  S: Solubility: 1700 µg/mL
  FC: Form change: Yes
[2]; H2O, 4 hrs
  S: Solubility: 3800 µg/mL
  FC: Form change: Yes
[2]; H2O, 24 hrs
  S: Solubility: 4900 µg/mL
  FC: Form change: Yes
[2]; SGF, 1 hr
  S: Solubility: 280 µg/mL
  FC: Form change: Yes
[2]; SGF, 2 hrs
  S: Solubility: 69 µg/mL
  FC: Form change: Yes
[2]; SGF, 4 hrs
  S: Solubility: 39 µg/mL
  FC: Form change: Yes
[2]; SGF, 24 hrs
  S: Solubility: 50 µg/mL
  FC: Form change: Yes
[2]; all the media (H2O, SGF, FaSSIF, FeSSIF), after 24 hrs
  form change of residual solids (XRPD) after solubility test: form change was observed
[3]; 25° C./60% RH, 1 week
  HPLC peak Area, RRT 0.70: 0.06%
  HPLC peak Area, RRT 0.73: 0.15%
  HPLC peak Area, RRT 0.83: 1.80%
  HPLC peak Area, RRT 0.90: 0.09%
  HPLC peak Area, RRT 0.99: 0.06%
  HPLC peak Area, RRT 1.05: 0.27%
  HPLC peak Area, RRT 1.10: 0.67%
  HPLC peak Area, RRT 1.11: 0.05%
  HPLC peak Area, RRT 1.12: 0.06%
  HPLC peak Area, RRT 1.15: 0.21%
  HPLC peak Area, RRT 1.34: 0.10%
  HPLC peak Area, RRT 1.00: 96.47%
[3]; 25° C./60% RH/Open/1 week
  Form change: No
  Purity: 96.47 Area %
[3]; 25° C./60% RH/open and 40° C./75% RH/open, 1 week
  solid-state stability: form change and purity decrease: no form change or significant purity decrease
[3]; 40° C./75% RH, 1 week
  HPLC peak Area, RRT 0.70: 0.05%
  HPLC peak Area, RRT 0.73: 0.14%
  HPLC peak Area, RRT 0.83: 1.78%
  HPLC peak Area, RRT 0.90: 0.09%
  HPLC peak Area, RRT 0.99: <0.05%
  HPLC peak Area, RRT 1.05: 0.28%
  HPLC peak Area, RRT 1.10: 0.66%
  HPLC peak Area, RRT 1.11: 0.06%
  HPLC peak Area, RRT 1.12: 0.06%
  HPLC peak Area, RRT 1.15: 0.22%
  HPLC peak Area, RRT 1.34: 0.07%
  HPLC peak Area, RRT 1.00: 96.58%
[3]; 40° C./75% RH/Open/1 week
  Form change: No
  Purity: 96.58 Area %
[3]; Initial
  HPLC peak Area, RRT 0.70: 0.05%
  HPLC peak Area, RRT 0.73: 0.16%
  HPLC peak Area, RRT 0.83: 1.84%
  HPLC peak Area, RRT 0.90: 0.09%
  HPLC peak Area, RRT 0.99: 0.05%
  HPLC peak Area, RRT 1.05: 0.27%
  HPLC peak Area, RRT 1.10: 0.70%
  HPLC peak Area, RRT 1.11: 0.05%
  HPLC peak Area, RRT 1.12: 0.06%
  HPLC peak Area, RRT 1.15: 0.22%
  HPLC peak Area, RRT 1.34: 0.10%
  Purity: 96.41 Area %
  HPLC peak Area, RRT 1.00: 96.41%
